One experiment addresses B-Raf V600E (Homo sapiens, UniProt P15056, V600E). The experiment can be described thus: B-Raf V600E kinase activity assay (AlphaScreen, biotin-MEK1 substrate). To be noted: 100 μM ATP, 100 nM biotin-MEK1, 45 minutes at room temperature, read-out: Biochemical activity (IC50 μM) V600E. The method in brief: (§1)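 Each Raf enzyme (0.1 ng) phosphorylates 100 nM biotin-MEK1 in pH 7.0 HEPES with Mg2+/Mn2+, 100 μM ATP final, 45 min at room temperature. Phospho-MEK1/2 antibody with AlphaScreen beads is read after 3 h. IC50 comes from an 8-point dilution series.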

A further experiment deals with CYP3A4(BFC) (Homo sapiens, UniProt P08684). As to the kind of experiment: CYP3A4 inhibition (substrate BFC). The experiment is classed as in vitro ADME. To be noted: read-out: Cyp IC50 (μM) 3A4(BFC). How it is done:
(§2) CYP (Cytochrome P450) enzymes are the major drug metabolizing enzymes present in the liver. The inhibition of CYP enzyme activity (IC50) for each of CYP1A2, CYP2C19, CYP2C9, CYP2D6, CYP3A4(BFC) and CYP3A4(BQ) is determined for compounds, where inhibition of metabolism of a known substrate leads to a decrease in the fluorescence of the metabolized product. The fluorescence of the product is monitored as a function of compound concentration. Compounds are dissolved in dimethyl sulfoxide to a concentration of 100 mM. These are diluted […], into 82 μL of acetonitrile. An 11 μL aliquot of this solution is then added to 204 μL of cofactor mix (1.3% NADPH Regeneration system Solution A, 1.04% NADPH Regeneration system Solution B from BD Biosciences, 5% acetonitrile and 0.05% dimethyl sulfoxide). These are then serially diluted 1:1 (160 μL to 160 μL co-factor mix) for a total of 10 points. A 10 μL aliquot of this final mixture is dispensed into 384 well assay plates and incubated for 10 minutes at 37° C. Enzyme and substrate mix (10 μL; 0.5 pmol CYP1A2/5 μM CEC; 1.0 pmol CYP2C9/75 μM MFC; 0.5 pmol CYP2C19/25 μM CEC; 1.5 pmol CYP2D6/1.5 μM AMMC; 1.0 pmol CYP3A4/50 μM BFC; or 1.0 pmol CYP3A4/40 μM BQ) is added to these assay plates. Assay plates are incubated at 37° C. (CYP1A2-15 min; CYP2C9-45 min; CYP2C19, 2D6 and 3A4-30 min) and read in a Tecan Safire 2 plate reader (CYP1A2, 2C19 and 3A4 409 ex/460 em; CYP2C9 and 2D6 409 ex/530 em). The signal versus compound concentration is used to determine the IC50. The enzymes and substrates for this assay are obtained from BD Biosciences.

For a further experiment, the target named is CYP2C9 (Homo sapiens, UniProt P11712). The experiment can be described thus: CYP2C9 inhibition (fluorescent substrate MFC). The experiment is classed as in vitro ADME. To be noted: read-out: Cyp IC50 (μM) 2C9. Here is the method:
as §2

In the next experiment the target is CYP2D6 (Homo sapiens, UniProt P10635). The experiment can be described thus: CYP2D6 inhibition (fluorescent substrate AMMC). The experiment is classed as in vitro ADME. To be noted: read-out: Cyp IC50 (μM) 2D6. Here is the method:
as §2

The next experiment has as its target B-Raf (Homo sapiens, UniProt P15056). As to the kind of experiment: B-Raf kinase activity assay (AlphaScreen, biotin-MEK1 substrate). To be noted: 100 μM ATP, 100 nM biotin-MEK1, 45 minutes at room temperature; read-out: Biochemical activity (IC50 μM) B-Raf. The method in brief: as §1
The target in the next experiment is T1, CYP1A2 (Homo sapiens, UniProt P05177).
T1 sequence (P05177 1-516): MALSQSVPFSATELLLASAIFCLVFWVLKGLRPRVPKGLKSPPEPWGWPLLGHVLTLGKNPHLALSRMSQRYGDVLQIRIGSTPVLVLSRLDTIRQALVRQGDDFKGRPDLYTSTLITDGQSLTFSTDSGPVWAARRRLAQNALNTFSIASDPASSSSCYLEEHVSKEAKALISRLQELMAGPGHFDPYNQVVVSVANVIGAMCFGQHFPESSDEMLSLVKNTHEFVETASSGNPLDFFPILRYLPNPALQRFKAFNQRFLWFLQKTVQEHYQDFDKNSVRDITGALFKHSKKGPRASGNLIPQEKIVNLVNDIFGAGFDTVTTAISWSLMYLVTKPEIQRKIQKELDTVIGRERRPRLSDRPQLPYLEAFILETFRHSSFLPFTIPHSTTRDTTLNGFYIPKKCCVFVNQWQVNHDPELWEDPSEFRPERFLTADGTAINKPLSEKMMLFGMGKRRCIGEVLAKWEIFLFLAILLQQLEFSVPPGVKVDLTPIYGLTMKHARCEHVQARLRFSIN
As to the kind of experiment: CYP1A2 inhibition (fluorescent substrate CEC). The class given is in vitro ADME. Particulars: read-out: Cyp IC50 (μM) 1A2. Here is the method:
as §2

Another experiment has as its target CYP2C19 (Homo sapiens, UniProt P33261). The experiment can be described thus: CYP2C19 inhibition (fluorescent substrate CEC). The class given is in vitro ADME. To be noted: read-out: Cyp IC50 (μM) 2C19. Here is the method:
as §2

Where only a bound is given, the exact number is not on record here.

CYP3A4(BFC), sequence (P08684 whole entry): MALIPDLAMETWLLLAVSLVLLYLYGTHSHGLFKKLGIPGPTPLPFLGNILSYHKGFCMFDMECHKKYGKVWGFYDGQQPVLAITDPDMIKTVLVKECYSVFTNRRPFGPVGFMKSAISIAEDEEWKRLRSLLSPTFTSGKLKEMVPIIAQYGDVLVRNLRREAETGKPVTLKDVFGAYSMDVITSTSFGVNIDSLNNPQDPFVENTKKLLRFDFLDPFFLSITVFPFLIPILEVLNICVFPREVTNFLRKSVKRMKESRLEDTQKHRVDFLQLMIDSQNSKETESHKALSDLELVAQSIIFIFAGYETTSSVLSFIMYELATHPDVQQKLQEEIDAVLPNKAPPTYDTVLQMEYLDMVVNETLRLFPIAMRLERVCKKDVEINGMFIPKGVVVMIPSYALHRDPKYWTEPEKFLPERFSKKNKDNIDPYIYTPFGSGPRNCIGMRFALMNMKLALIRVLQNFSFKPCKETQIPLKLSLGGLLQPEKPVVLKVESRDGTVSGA
CYP2C19, sequence (P33261 whole entry): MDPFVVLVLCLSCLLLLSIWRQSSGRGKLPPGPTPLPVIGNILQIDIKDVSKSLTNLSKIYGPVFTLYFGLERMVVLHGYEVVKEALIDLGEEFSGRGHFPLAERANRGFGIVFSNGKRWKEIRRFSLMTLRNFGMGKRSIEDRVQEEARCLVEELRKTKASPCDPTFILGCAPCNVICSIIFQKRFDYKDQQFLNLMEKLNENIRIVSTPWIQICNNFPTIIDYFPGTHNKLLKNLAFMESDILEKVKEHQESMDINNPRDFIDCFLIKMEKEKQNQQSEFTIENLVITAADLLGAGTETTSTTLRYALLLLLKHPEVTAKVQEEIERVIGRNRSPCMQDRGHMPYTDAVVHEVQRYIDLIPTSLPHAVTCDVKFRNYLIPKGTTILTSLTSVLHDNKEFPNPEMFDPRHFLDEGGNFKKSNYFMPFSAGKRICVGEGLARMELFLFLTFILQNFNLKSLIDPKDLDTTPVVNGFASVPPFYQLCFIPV
CYP2C9, sequence (P11712 whole entry): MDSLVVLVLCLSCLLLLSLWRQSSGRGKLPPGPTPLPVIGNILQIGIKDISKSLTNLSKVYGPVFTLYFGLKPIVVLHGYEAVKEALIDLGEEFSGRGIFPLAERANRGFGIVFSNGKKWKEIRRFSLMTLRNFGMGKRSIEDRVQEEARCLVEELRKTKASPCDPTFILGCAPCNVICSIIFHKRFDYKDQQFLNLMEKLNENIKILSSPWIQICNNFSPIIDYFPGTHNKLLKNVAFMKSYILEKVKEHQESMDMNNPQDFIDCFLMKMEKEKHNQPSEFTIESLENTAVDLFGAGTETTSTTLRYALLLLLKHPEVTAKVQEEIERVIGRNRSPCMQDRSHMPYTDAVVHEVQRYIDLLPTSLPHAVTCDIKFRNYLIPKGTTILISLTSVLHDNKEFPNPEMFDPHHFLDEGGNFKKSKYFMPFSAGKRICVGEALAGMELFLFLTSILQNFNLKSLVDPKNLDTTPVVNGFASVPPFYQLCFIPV
B-Raf V600E, sequence (P15056 whole entry V600E): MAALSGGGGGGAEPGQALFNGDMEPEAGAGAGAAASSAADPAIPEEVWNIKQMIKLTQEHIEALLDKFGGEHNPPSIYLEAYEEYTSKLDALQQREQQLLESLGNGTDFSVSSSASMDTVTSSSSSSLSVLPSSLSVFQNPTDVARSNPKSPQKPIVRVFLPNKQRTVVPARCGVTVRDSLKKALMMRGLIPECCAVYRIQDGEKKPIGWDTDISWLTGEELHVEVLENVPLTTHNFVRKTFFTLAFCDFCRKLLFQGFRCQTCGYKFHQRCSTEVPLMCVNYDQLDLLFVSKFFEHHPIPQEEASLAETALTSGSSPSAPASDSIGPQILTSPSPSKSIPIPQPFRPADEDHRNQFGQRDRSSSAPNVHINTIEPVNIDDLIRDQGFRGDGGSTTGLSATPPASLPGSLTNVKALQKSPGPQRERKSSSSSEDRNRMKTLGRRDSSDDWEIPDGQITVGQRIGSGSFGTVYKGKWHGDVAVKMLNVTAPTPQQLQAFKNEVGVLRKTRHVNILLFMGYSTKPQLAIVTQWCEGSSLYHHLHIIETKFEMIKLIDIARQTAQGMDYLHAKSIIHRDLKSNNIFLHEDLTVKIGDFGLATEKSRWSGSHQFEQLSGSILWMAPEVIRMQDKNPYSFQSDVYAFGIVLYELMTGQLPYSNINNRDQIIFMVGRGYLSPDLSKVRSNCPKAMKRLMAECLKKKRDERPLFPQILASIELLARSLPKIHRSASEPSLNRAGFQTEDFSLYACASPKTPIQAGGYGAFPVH
CYP2D6, sequence (P10635 whole entry): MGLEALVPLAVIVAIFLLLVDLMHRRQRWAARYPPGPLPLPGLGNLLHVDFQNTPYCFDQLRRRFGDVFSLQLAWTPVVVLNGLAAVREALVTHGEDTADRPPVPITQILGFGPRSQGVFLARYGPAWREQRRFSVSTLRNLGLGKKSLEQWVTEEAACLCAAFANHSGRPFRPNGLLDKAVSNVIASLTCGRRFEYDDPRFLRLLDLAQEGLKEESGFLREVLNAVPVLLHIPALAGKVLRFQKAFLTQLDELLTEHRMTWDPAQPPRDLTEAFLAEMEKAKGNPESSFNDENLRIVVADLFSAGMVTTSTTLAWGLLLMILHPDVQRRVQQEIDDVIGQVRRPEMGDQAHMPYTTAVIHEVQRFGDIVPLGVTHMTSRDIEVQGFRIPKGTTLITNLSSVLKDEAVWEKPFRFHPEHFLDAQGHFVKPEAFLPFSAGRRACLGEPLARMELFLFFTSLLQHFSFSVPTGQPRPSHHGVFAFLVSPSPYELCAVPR
B-Raf, sequence (P15056 whole entry): as the sequence (P15056 whole entry V600E) above, with E600V counted along it

Consider `CCCS(=O)(=O)Nc1ccc(F)c(C(=O)c2c[nH]c3ncc(-c4ccc5[nH]ncc5c4)cc23)c1F` [P-0001, propane-1-sulfonic acid {2,4-difluoro-3-[5-(1H-indazol-5-yl)-1H-pyrrolo[2,3-b]pyridine-3-carbonyl]-phenyl}-amide], for which the IC50 is less than 0.1 µM on B-Raf V600E; greater than 10 µM on CYP3A4(BFC); less than 5 µM at CYP2C9; greater than 10 µM on CYP2D6; less than 0.1 µM on B-Raf; greater than 10 µM on CYP1A2. On CYP2C19, the half-maximal inhibitory concentration (IC50) is less than 5 µM.

For `O=C(c1c(F)ccc(NS(=O)(=O)c2cc(F)ccc2F)c1F)c1c[nH]c2ncc(-c3ccc4[nH]ncc4c3)cc12` [P-0002, N-{2,4-Difluoro-3-[5-(1H-indazol-5-yl)-1H-pyrrolo[2,3-b]pyridine-3-carbonyl]-phenyl}-2,5-difluoro-benzenesulfonamide], the half-maximal inhibitory concentration (IC50) at B-Raf V600E was less than 0.1 µM; on CYP2C9, less than 5 µM; at CYP2D6, greater than 10 µM; at B-Raf, less than 0.1 µM; on CYP1A2, greater than 10 µM; at CYP2C19, 5 to 10 µM.

On to `CNC(=O)n1ncc2cc(-c3cnc4[nH]cc(C(=O)c5c(F)ccc(NS(=O)(=O)c6cc(F)ccc6F)c5F)c4c3)ccc21` [P-0003, 5-{3-[3-(2,5-Difluoro-benzenesulfonylamino)-2,6-difluoro-benzoyl]-1H-pyrrolo[2,3-b]pyridin-5-yl}-indazole-1-carboxylic acid methylamide], for which the IC50 at B-Raf V600E is less than 0.1 µM; at CYP3A4(BFC) it was greater than 10 µM; at CYP2C9 it was less than 5 µM; at CYP2D6, greater than 10 µM; on B-Raf it was less than 0.1 µM; at CYP1A2, greater than 10 µM. Also, the concentration for half-maximal inhibition (IC50) at CYP2C19 was less than 5 µM.

For the molecule `CC(=O)n1cc(C(=O)c2c(F)ccc(NS(=O)(=O)c3cc(F)ccc3F)c2F)c2cc(-c3ccc4c(cnn4C(C)=O)c3)cnc21` [P-0004, N-{3-[1-Acetyl-5-(1-acetyl-1H-indazol-5-yl)-1H-pyrrolo[2,3-b]pyridine-3-carbonyl]-2,4-difluoro-phenyl}-2,5-difluoro-benzenesulfonamide], the IC50 was less than 0.1 µM at B-Raf V600E; greater than 10 µM on CYP3A4(BFC); less than 5 µM at CYP2C9; greater than 10 µM on CYP2D6; less than 0.1 µM on B-Raf; greater than 10 µM on CYP1A2. The IC50 on CYP2C19 was less than 5 µM.

Consider `CC(=O)n1ncc2cc(-c3cnc4[nH]cc(C(=O)c5c(F)ccc(NS(=O)(=O)c6cc(F)ccc6F)c5F)c4c3)ccc21` [P-0005, N-{3-[5-(1-Acetyl-1H-indazol-5-yl)-1H-pyrrolo[2,3-b]pyridine-3-carbonyl]-2,4-difluoro-phenyl}-2,5-difluoro-benzenesulfonamide], for which the concentration for half-maximal inhibition (IC50) was less than 0.1 µM on B-Raf V600E; greater than 10 µM on CYP3A4(BFC); less than 5 µM at CYP2C9; greater than 10 µM at CYP2D6; less than 0.1 µM on B-Raf; greater than 10 µM at CYP1A2. Also, the IC50 on CYP2C19 was less than 5 µM.

For the molecule `CC(=O)N(c1ccc(F)c(C(=O)c2cn(C(C)=O)c3ncc(-c4ccc5c(cnn5C(C)=O)c4)cc23)c1F)S(=O)(=O)c1cc(F)ccc1F` [P-0006, N-Acetyl-N-{3-[1-acetyl-5-(1-acetyl-1H-indazol-5-yl)-1H-pyrrolo[2,3-b]pyridine-3-carbonyl]-2,4-difluoro-phenyl}-2,5-difluoro-benzenesulfonamide], the concentration for half-maximal inhibition (IC50) on B-Raf V600E is less than 0.1 µM; on CYP3A4(BFC), greater than 10 µM; at CYP2C9 it was less than 5 µM; on CYP2D6 it was greater than 10 µM; at B-Raf, less than 0.1 µM; at CYP1A2 it was 5 to 10 µM. Further, the IC50 at CYP2C19 was in the range of 5 to 10 µM.

Turning to `CCCS(=O)(=O)Nc1ccc(F)c(C(=O)c2c[nH]c3ncc(-c4ccc5c(cnn5C(C)=O)c4)cc23)c1F` [P-0007, propane-1-sulfonic acid {3-[5-(1-acetyl-1H-indazol-5-yl)-1H-pyrrolo[2,3-b]pyridine-3-carbonyl]-2,4-difluoro-phenyl}-amide], the IC50 at B-Raf V600E was less than 0.1 µM; at CYP3A4(BFC) it was greater than 10 µM; on CYP2C9 it was less than 5 µM; at CYP2D6, greater than 10 µM; on B-Raf it was less than 0.1 µM; on CYP1A2 it was less than 5 µM. Moreover, the IC50 at CYP2C19 is less than 5 µM.

Turning to `CCCS(=O)(=O)Nc1ccc(F)c(C(=O)c2c[nH]c3ncc(-c4ccc5nn(C)cc5c4)cc23)c1F` [P-0010, Propane-1-sulfonic acid {2,4-difluoro-3-[5-(2-methyl-2H-indazol-5-yl)-1H-pyrrolo[2,3-b]pyridine-3-carbonyl]-phenyl}-amide], the IC50 at B-Raf V600E is less than 0.1 µM; at CYP3A4(BFC), greater than 10 µM; on CYP2C9, greater than 10 µM; at CYP2D6, greater than 10 µM; at B-Raf, less than 0.1 µM; at CYP1A2, greater than 10 µM. Moreover, at CYP2C19, the IC50 was greater than 10 µM.

As for `CCCS(=O)(=O)Nc1ccc(F)c(C(=O)c2c[nH]c3ncc(-c4ccc5cn(C)nc5c4)cc23)c1F` [P-0011, Propane-1-sulfonic acid {2,4-difluoro-3-[5-(2-methyl-2H-indazol-6-yl)-1H-pyrrolo[2,3-b]pyridine-3-carbonyl]-phenyl}-amide], the IC50 on B-Raf V600E was less than 0.1 µM; on CYP3A4(BFC), greater than 10 µM; at CYP2C9, 5 to 10 µM; at CYP2D6 it was greater than 10 µM; at B-Raf, less than 0.1 µM; on CYP1A2, less than 5 µM. At CYP2C19, the IC50 is greater than 10 µM.

For `CCCS(=O)(=O)Nc1ccc(F)c(C(=O)c2c[nH]c3ncc(-c4ccc5[nH]ccc5c4)cc23)c1F` [P-0012, Propane-1-sulfonic acid {2,4-difluoro-3-[5-(1H-indol-5-yl)-1H-pyrrolo[2,3-b]pyridine-3-carbonyl]-phenyl}-amide], the 50% inhibitory concentration (IC50) at B-Raf V600E was less than 0.1 µM; at CYP3A4(BFC), 5 to 10 µM; on CYP2C9, 5 to 10 µM; at CYP2D6, greater than 10 µM; on B-Raf, less than 0.1 µM; on CYP1A2 it was greater than 10 µM. Further, on CYP2C19, the IC50 is less than 5 µM.

Consider `CCCS(=O)(=O)Nc1ccc(F)c(C(=O)c2c[nH]c3ncc(-c4cccc5nn(C)cc45)cc23)c1F` [P-0015, Propane-1-sulfonic acid {2,4-difluoro-3-[5-(2-methyl-2H-indazol-4-yl)-1H-pyrrolo[2,3-b]pyridine-3-carbonyl]-phenyl}-amide], for which the IC50 is less than 0.1 µM on B-Raf V600E; greater than 10 µM at CYP3A4(BFC); 5 to 10 µM at CYP2C9; greater than 10 µM at CYP2D6; less than 0.1 µM at B-Raf; greater than 10 µM on CYP1A2. The IC50 on CYP2C19 was greater than 10 µM.

In the case of `CCCS(=O)(=O)Nc1ccc(F)c(C(=O)c2c[nH]c3ncc(-c4ccc5c(cnn5S(C)(=O)=O)c4)cc23)c1F` [P-0016, propane-1-sulfonic acid {2,4-difluoro-3-[5-(1-methanesulfonyl-1H-indazol-5-yl)-1H-pyrrolo[2,3-b]pyridine-3-carbonyl]-phenyl}-amide], the IC50 is less than 0.1 µM at B-Raf V600E; greater than 10 µM on CYP3A4(BFC); greater than 10 µM on CYP2C9; greater than 10 µM on CYP2D6; less than 0.1 µM on B-Raf; greater than 10 µM at CYP1A2. Also, at CYP2C19, the IC50 was greater than 10 µM.

The record behind these values is patent US9440969B2, “Compounds and methods for kinase modulation, and indications therefor” (PLEXXIKON INC., priority 2009, dated 2016).
